Experimental data taken from PMC10712727, “Safety, Tolerability, and Pharmacokinetics of Senaparib, a Novel PARP1/2 Inhibitor, in Chinese Patients With Advanced Solid Tumors: A Phase I Trial” (The Oncologist, 2023).
Entries after “also recorded” stand apart in the source; their conditions may differ.

Tests used:
[1] = test system: patients with advanced solid tumors; assay: Dose-limiting toxicities, MTD and RP2D determination (modified 3 + 3 dose escalation); format: in vivo
Protocol: Dose escalation was conducted using a modified Fibonacci 3 + 3 method (Supplementary Fig. S1).[17] Patients were administered oral senaparib from a planned starting dose of 2 mg once daily (QD), with preliminary dose escalation to 120 mg via nine dose groups, in order of their entry into the study. At a given dose level, each patient received a single dose of senaparib followed by a 7-day washout period. They then entered a continuous dosing period to confirm the safety and PK profile, in which they received senaparib QD from day 1 to day 21 of each 3-week cycle. Progression to the next higher dose required approval from the Data Safety Monitoring Committee (DSMC) upon review of the safety and PK data of the previous dose. […]
DLTs were predefined toxicities (Supplementary Table S2) recorded over the 7 days following the single-dose administration of senaparib and during the first treatment cycle (day 1-day 21) for each dose group in the dose-escalation period only. […] Plasma concentrations of senaparib were determined using high-performance liquid chromatography-tandem mass spectrometry. Tumor response was assessed every 6 weeks per RECIST v1.1,[16] recording objective response rate (ORR), disease control rate (DCR), duration of response (DOR), and progression-free survival (PFS) by dose level for all patients and for those harboring BRCA^mut+ tumors.

[2] = Plasma pharmacokinetics in continuous dosing period, cycle 1 day 15 steady state (HPLC-MS/MS); format: in vivo, human; conditions: dose range of 2-120 mg
anticancer animal models = test system: anticancer animal models; parameters: method as in doi:10.1158/1538-7445.am2022-1399; conditions: in vivo studies (anticancer animal models); cited from earlier work

Compound: O=C(c1cc(Cn2c(=O)[nH]c(=O)c3c(F)cccc32)ccc1F)N1CCN(c2ncccn2)CC1 [Senaparib]
- Dose-limiting toxicities (DLTs) ([1]; DLT observation period, dose escalation, 2-120 mg QD and 50 mg BID): No dose-limiting toxicities were observed; also recorded: No DLTs were observed
- Maximum tolerated dose (MTD) ([1]; doses up to 120 mg QD): not reached
- Dose linearity [2]: Dose linearity was not observed
- Potency relative to the PARP inhibitor olaparib (anticancer animal models): 20 fold
